According to patent US11634458B2, “Peptides and compositions for use in cosmetics and medicine” (LIPOTRUE, S.L., priority 2018, dated 2023):

Assays:
Munc18/Syntaxin-1 = Munc18/Syntaxin-1 (Homo sapiens, UniProt Q16623); test: ELISA-based in vitro Munc18/Syntaxin-1 binding assay; details: peptide 0.1, 0.5 and 1 mM; Munc18 100 nM, Syntaxin-1 10 and 5 nM; control = 100% binding
Procedure: The capacity of the peptides to inhibit Munc18 protein-protein interaction with Syntaxin-1, a SNARE complex protein, was functionally evaluated by means of an ELISA-based in vitro Munc18/Syntaxin-1 binding assay. Briefly, the above-mentioned peptides at 0.1, 0.5 and 1 mM were preincubated with their target protein Syntaxin-1 (GST-tagged) at 10 and 5 nM in buffer (20 mM Hepes, 150 mM NaCl, 2 mM MgC2, 2 mM DTT, 0.5% Triton-X100 and 0.5% non-fat milk) for 3 hours at RT. Meanwhile, His-tagged Munc18 was bound to a Nickel-coated 96-well plate at 100 nM and incubated at RT for 1.5 hours. Non-bound protein was subsequently washed away before blocking wells with non-fat milk in wash buffer (PBS+0.02% Triton-X100) for additional 30 minutes. GST-tagged Syntaxin-1 preincubated with the peptides was then added at 10 and 5 nM to the plate and incubated for 2 h at RT. Wells were washed three times with wash buffer before incubation with the primary antibody (GST tag polyclonal antibody—Thermofisher Scientific, Massachusetts, USA) for 45 minutes. Finally, after washing again, HRP-conjugated secondary antibody (Anti-Rabbit-IgG-HRP—Sigma, Missouri, USA) was added and incubated at RT. TMB substrate (3,3′,5,5′-Tetramethylbenzidine) was used to develop signal. […] Amount of binding of Syntaxin-1 protein to Munc18 protein was analysed by measuring absorbance at 450 nm.

myosin heavy chain = test: Myosin heavy chain protein decrease by immunofluorescence; format: cell-based, human; details: vs non-treated cells; for reduction of myosin heavy chain protein levels: 48 hours
Procedure: The potential of said peptide Ac-SEQ ID NO: 8-NH2 to decrease the expression of the protein myosin heavy chain in human skeletal muscle cells was evaluated in vitro by immunofluorescence using a specific antibody against this protein (Biotechne, USA) followed by a secondary fluorescent antibody (Thermofisher, USA). Briefly, human skeletal muscle myoblasts were seeded onto coverslips in SKM-M medium (Tebu-Bio, France) at a density of 3×10^4 cells/cm^2 and incubated overnight at standard culture conditions (37° C., 95% humidity, 5% CO2). Myoblast differentiation to myocyte was then induced with specific differentiation medium (Skeletal Muscle Cell Differentiation Medium, SKM-D medium) and monitored for 7 more days. Differentiated cells were treated with non-cytotoxic concentrations of peptide Ac-SEQ ID NO: 8-NH2 (0.05 mg/mL and 0.5 mg/mL) for additional 48 hours.
Once incubation was finished, cells were fixed with 4% PFA and permeabilized using 0.1% (v/v) Triton (Sigma, USA). Myosin was then stained with 0.5 mg/ml myosin heavy chain antibody during 2 h at room temperature. After proper washing, actin protein was labelled with 50 μg/ml Phalloidin (red) (Sigma, USA) for 1 h and, after washing, cells were stained with 4 μg/ml of the secondary antibody Goat anti-Mouse IgG for 1 h. Finally, nuclei were stained with 3.5 μg/ml Hoescht marker for 10 min (Sigma, USA).
Microscopic images were acquired using the 5× and 10× objectives. Three replicates were used for each condition and images of three to four fields of each coverslip were acquired using the same settings.
Images were analyzed using Image J software. Shortly, threshold was adjusted to select myosin and mean fluorescent was measured. The number of positive cells was counted using DAPI staining. Myosin mean fluorescent intensity was divided by the number of myosin-positive cells. Finally, all data was normalized as follows to obtain the % of myosin compared to non-treated cells: % vs. control=(fluorescence per cell in treated wells/fluorescence per cell in non-treated wells)×100.

collagen type I = test: Collagen type I production by fibroblasts (competitive ELISA); format: cell-based, human; details: vs non-treated cells
Procedure: The potential of said peptide Ac-SEQ ID NO: 8-NH2 to modulate the production of collagen type I as a potential improver of skin firming was evaluated in vitro using human skin fibroblasts.
Cell were seeded in 96-well plates at 1×10^4 cells/well and maintained for 24 h at standard culture conditions (37° C., 95% humidity, 5% CO2). After 24 h incubation, medium was removed and new medium containing the peptide Ac-SEQ ID NO: 8-NH2 at 0.01, 0.05 or 0.1 mg/mL was added to the wells concentration. Treatment lasted 24 hours or 48 hours and at the end of the assay cell culture media were collected. Cells treated only with culture medium were used as basal control (non-treated cells).
After 24 and 48 hours of treatment the amount of collagen type I produced and released by the cells (ex-novo collagen type I synthesis) was measured in cell culture medium by means of ELISA assay. The results of the test item were compared to basal control condition (non-treated cells). The treatments were performed in triplicate in three different experimental sessions.
The determination of collagen type I synthesis was carried out by means of a competitive ELISA method. Samples were added to enzyme wells which were pre-coated with antibodies, then the recognition antigen labeled with Horseradish peroxidase (HRP) was added; after being incubated 1 hour at 37° C., both compete with solid phase antigen and form immune complex. After washing with phosphate buffer solution, the combined HRP catalyzes Tetramethylbenzidine (TMB) into blue, and turns into yellow by the action of acid; it has an absorption peak under 450 nm wavelength and its absorbance is negatively correlated with antigen density of sample. The plates were read by microplate reader.
The quantitative determination uses a calibration curve made-up of known and growing concentrations of standard collagen type 1. The results are expressed as collagen type I concentration (μg/ml) in 50 μL cell culture medium.
Three trials were performed for each determination in three different experimental sessions. The % variation in collagen type I content between negative controls and samples was calculated and a direct index of the efficacy of the peptide to increase collagen I synthesis was obtained.

Munc18/Syntaxin-1, sequence (Q16623 whole entry): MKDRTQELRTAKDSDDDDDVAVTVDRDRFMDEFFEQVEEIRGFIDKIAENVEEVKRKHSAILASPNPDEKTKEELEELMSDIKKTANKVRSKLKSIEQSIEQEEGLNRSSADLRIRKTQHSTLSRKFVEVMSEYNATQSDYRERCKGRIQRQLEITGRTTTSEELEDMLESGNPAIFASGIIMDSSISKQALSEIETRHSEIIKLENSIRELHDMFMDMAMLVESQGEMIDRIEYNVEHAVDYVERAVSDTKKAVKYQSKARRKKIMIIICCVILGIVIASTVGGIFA

## Ac-His-Ala-Leu-Arg-Phe-Trp-NH2 [Ac-SEQ ID NO: 8-NH2]
Munc18/Syntaxin-1
  Maximum inhibition of Munc18-Syntaxin-1 binding: 37%
Myosin heavy chain; 0.05 mg/mL
  reduction of myosin heavy chain protein levels: −26%
  myosin heavy chain protein levels (representative images, FIG. 5): reduction of myosin heavy chain protein levels
Myosin heavy chain; 0.5 mg/mL
  reduction of myosin heavy chain protein levels: −38%
Collagen type I; 0.01 mg/mL, 24 h
  increase of collagen type I production: 9%
Collagen type I; 0.01 mg/mL, 48 h
  increase of collagen type I production: 16%
Collagen type I; 0.05 mg/mL, 24 h
  increase of collagen type I production: 31%
Collagen type I; 0.05 mg/mL, 48 h
  increase of collagen type I production: 29.5%
Collagen type I; 0.1 mg/mL, 24 h
  increase of collagen type I production: 37.5%
Collagen type I; 0.1 mg/mL, 48 h
  increase of collagen type I production: 56.5%
